Data taken from patent publication US11884649B2, “IRE1α inhibitors and uses thereof” (The Regents of the University of California, priority 2020, dated 2024).
Entries after “also recorded” stand apart in the source; their conditions may differ.

Experiments:
[1] = system: mouse splenocytes; assay: LPS-induced differentiation of mouse splenocytes into plasma cells (flow cytometry, IgM ELISA); assay type: cell-based; conditions: 1 μg/mL LPS, three days, 20 μM-1.25 μM
Experimental: Therefore, we sought to compare the sensitivity of this process to both KIRAs and PAIRs. To this end, we assessed how KIRA8, KIRA9, and PAIR1 affected the differentiation of lipopolysaccharide (LPS)-treated mouse splenocytes into antibody-secreting plasma cells. Total live number of CD19+ B-cells were assessed and plasma cells were quantified on the basis of B220 downregulation and CD138 expression by flow cytometry (FIGS. 6A-6C, FIG. 24). Concomitantly, secreted IgM was measured in the cell culture supernatants by ELISA (FIG. 6C).
Splenocyte Isolation and Differentiation
Red blood cells were lysed with ammonium chloride potassium buffer. Splenocytes were plated at 2.5×10^5 cells/well in a 96-well round bottom plate in complete media. The splenocytes were treated with or without 1 μg/ml LPS 026:b6 (Sigma). […] The splenocytes were incubated for three days in a 37° C., 5% CO2 humidified chamber before collection and staining for flow cytometry.
Cells from the plasma cell assay were collected in a 96-well plate and washed with PBS followed by staining with LIVE/DEAD Fixable Near-IR Dead Cell Stain kit (Invitrogen). Reagent was reconstituted as per manufacturer's instructions, diluted 1:1000 in PBS, and cells were stained in 100 μL on ice for 20 minutes. The cells were then washed with FACS buffer, PBS (Corning), 2 mM EDTA and 2% heat inactivated fetal bovine serum (Omega Scientific). The cells were then stained with 50 μL antibody cocktail consisting of anti-CD19 (BioLegend), anti-CD45R (BD Pharmingen), and anti-CD138 (BioLegend) in FACS buffer on ice for 15 minutes. Cells were resuspended in FACS buffer and combined with an equal volume of 4% paraformaldehyde with 5000 Countbright Absolute Counting Beads (Thermofisher). Stained cells were analyzed on a Fortessa (Becton Dickinson). Data analysis was performed using FlowJo (v10) software (Treestar Inc.).
Media supernatants from the in vitro plasma cell differentiation assay were measured for secreted IgM by ELISA. […] Wash buffer (PBS with 0.05% Tween-20 (v/v)) was used for all washing steps and blocked with PBS-BB (PBS without Ca^2+/Mg^2+, 1% BSA (w/v), 0.05% Tween-20 (v/v)). Supernatants from LPS stimulated samples were diluted (1:100) and media only samples were diluted (1:10) in PBS-BB. […] ELISA plates were developed with TMB (Sigma) and stopped with 1N sulfuric acid. Absorbance was measured at 450 nm using spectrophotometer (Spectramax M5, Molecular Devices). Sample IgM concentration values were calculated with SoftMaxPro software.

[2] = target: T1, IRE1α* (Homo sapiens, UniProt O75460); assay: In vitro Kdimer assay (dimerization affinity from RNase activity); assay type: biochemical; conditions: 50 μM inhibitor
T1 construct: human IRE1α (residues 547-977, IRE1α*) was expressed in SF9 insect cells; His6 (N); made in house; host or cells: Sf9 insect cells (Bac-to-Bac baculovirus)
T1 sequence (O75460 547-977): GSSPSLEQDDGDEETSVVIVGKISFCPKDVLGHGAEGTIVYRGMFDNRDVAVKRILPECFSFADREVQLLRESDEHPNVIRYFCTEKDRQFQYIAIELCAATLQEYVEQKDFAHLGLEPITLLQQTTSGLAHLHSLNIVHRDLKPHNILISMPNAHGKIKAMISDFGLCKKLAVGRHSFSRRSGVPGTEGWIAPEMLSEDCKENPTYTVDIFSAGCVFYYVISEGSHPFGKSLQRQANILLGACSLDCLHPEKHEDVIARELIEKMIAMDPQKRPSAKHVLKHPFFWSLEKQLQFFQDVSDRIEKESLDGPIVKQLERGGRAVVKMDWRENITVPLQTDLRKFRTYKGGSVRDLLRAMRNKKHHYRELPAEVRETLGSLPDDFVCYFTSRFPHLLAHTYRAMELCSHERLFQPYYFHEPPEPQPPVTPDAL
Source text: In order to better understand how to achieve an optimal intermediate RNase activation state through engagement of IRE1α's kinase domain, we first established a quantitative in vitro framework for characterizing how ATP-binding site occupancy influences RNase activity. […] This dimeric state-commonly referred to as the “back-to-back” dimer—is characterized by an extensive interface between the kinase and RNase domains of each IRE1α protomer; this dimeric state can be promoted through mass action as IRE1α concentration is raised. […] Furthermore, ligands that occupy the ATP-binding site of the kinase domain can also stimulate IRE1α's RNase activity by promoting dimer formation. We measured the ability of a purified, recombinant kinase/RNase domain construct of IRE1α—called IRE1α*—to cleave a FRET-quenched XBP1 RNA mini-substrate as a function of IRE1α* concentration, in order to provide a quantitative metric of IRE1α's dimer affinity (Kdimer) (FIG. 1B).
IRE1α* or dPIRE1α* was titrated from either 2 μM or 4 μM in two-fold serial dilutions in assay buffer (20 mM Tris, 50 mM sodium chloride, 1 mM MgCl2, 2 mM DTT, 0.05% Triton X-100 (v/v), pH 7.5) and incubated with 50 μM inhibitor for 30 minutes at room temperature. Assays were initiated by adding 10 μL of XBP1-mini substrate (5′-Alex647-CAUGUCCGCAGCGCAUG-IowaBlack-FQ-3′ (SEQ ID NO:1); IDT) to the wells at a final concentration of 6 μM and a final well volume of 30 μL. Fluorescence was detected on a Perkin Elmer Envision Microplate Reader at excitation and emission wavelengths of 650 nm and 665 nm. Reaction process was monitored real time in 10-second intervals for at least 30 minutes. Initial rates of XBP1-cleavage were determined for each respective IRE1α* of dpIRE1α* concentration. Specific activity was then determined by dividing rate (RFU/s) by the respective IRE1α* of dpIRE1α* used (RFU/s*[IRE1α]). Kdimer values were determined by fitting these values using the non-linear regression ‘one-site total’ binding parameter in GraphPad Prism analysis software.

[3] = system: XBP1 mRNA splicing; assay: XBP1 splicing in ER-stressed INS-1 cells; assay type: cell-based, rat; conditions: brefeldin A (BFA) or thapsigargin (Tg)
Experimental: RNA Isolation, Quantitative Real-Time PCR, and Primers
INS-1 or isogenic IRE1α-overexpressing INS-1 cells were plated onto Poly-D-Lysine coated tissue culture plate and grown for 48 hrs. Inhibitors or DMSO were added to the media and incubated for 1 hour at 37° C. with 5% CO2 prior to addition of ER stress agents or Dox as indicated. RNA was isolated from whole cells using either QIAGEN RNeasy Mini kits or Trizol (Invitrogen) and reverse transcribed as above to obtain total cDNA. Then, XBP-1 primers were used to amplify an XBP-1 amplicon spanning the 26 nt intron from the cDNA samples in a regular 3-step PCR. Thermal cycles were: 5 min at 95° C., 30 cycles of 30 s at 95° C., 30 s at 60° C., and 1 min at 72° C., followed by 72° C. for 15 min, and hold at 4° C. Primers used for XBP-1 mRNA splicing were as follows: sense primer XBP1.3 S (5′ […]-3′ (SEQ ID NO:2)) and antisense primer XBP1.2AS (5′-[…]-3′ (SEQ ID NO:3)). PCR fragments were then digested by PstI, resolved on 3% agarose gels, stained with EtBr and quantified by densitometry using ImageJ (NIH). For standard mRNA detection, generally […] total RNA was reverse transcribed using the QuantiTect Reverse Transcription Kit (QIAGEN). For qPCR, we used SYBR green (QIAGEN) and StepOnePlus Real-Time PCR System (Applied Biosystems). Thermal cycles were: 5 min at 95° C., 40 cycles of 15 sec at 95° C., 30 sec at 60° C. […]

In the case of `Cc1ccc2c(NS(=O)(=O)c3ccccc3Cl)cccc2c1Oc1ncccc1-c1ccnc(N[C@H]2CCCNC2)n1` [KIRA8, reference compound], the IgM secretion [1] is reported as “reductions in both plasma cell differentiation and IgM secretion in a dose-dependent manner”, the “plasma cell (CD138+) differentiation” value [1] is reported as “dose-dependently inhibits B-cell differentiation into plasma cells; also recorded: reductions in both plasma cell differentiation and IgM secretion in a dose-dependent manner” and the “dimerization affinity of IRE1α* / formation of RNase active dimers” value [2] is reported as “unable to form RNase active dimers at any concentration tested”. The “spliced XBP1” value [3] was “completely suppresses XBP1 splicing; also recorded: almost completely suppressed”.
